Where two headings read alike, the source gives them in different places.
How the values were obtained:
[1] = test system: 3D GBM tumorspheres (spheroids) from coculture of U-87 MG, GBM CSC, GBM CAF and microglia (HMC3); experiment: Cisplatin dose-response in 3D GBM tumorspheres, CellTiter-Glo viability; format: cell-based
Procedure: (§1) Cell cultures were exposed to the indicated cisplatin concentrations for 72 h. Cell viability was then assessed using the luminescence-based CellTiter-Glo Assay. Data are presented as means±SEM (n≥2). For 2D cell cultures and 3D tumorspheres FIGS. 7A and 7B) dose-response curves were fitted (nonlinear regression) to calculate the IC50 values (see: Table 1 in the examples section). In the 3D bioprint experiment (FIG. 7B) statistically significant difference between untreated control and cisplatin treatment was determined using an unpaired t-test (**** p≤0.0001).
In the next step, response to cisplatin was tested in 3D GBM spheroids (see FIG. 7B). […] Nevertheless, cisplatin was effective in 3D GBM tumourspheres (spheroids) as well.

[2] = test system: glioblastoma cancer stem cells (GBM CSC); experiment: Cisplatin dose-response in 2D culture, CellTiter-Glo viability; format: cell-based
Procedure: as §1
(§2) Both cell lines were deemed sensitive to cisplatin, however, higher drug doses were required to initiate death of cancer stem cells.

[3] = test system: U-87 MG glioblastoma cell line; experiment: as above; format: cell-based
Procedure: as §1, §2

[4] = test system: 3D GBM bioprints (example B21_012); experiment: Cisplatin treatment of 3D GBM bioprinted constructs, CellTiter-Glo viability; format: cell-based, human
Procedure: as §1
Bioprinted constructs were treated with 50, 100, 200, or 400 μM cisplatin (CDDP) for 72 h. Viability was assessed using CellTiter-Glo assay.
Tumorspheres, obtained from a coculture of U87MG (60%), microglia HMC3 (28%), GBM-CAF (10%) and GBM-CSC (2%) after 14 days in 5×96-well round bottom low adhesion plates, were harvested by sedimenting in Falcon tube then transferred into a 1 ml syringe. The culture medium was eliminated by gravitation. The total volume of tumorsphere pellet was 50 μL. 270 μL of bioink Cellink Laminink 411 were transferred into another 1 ml syringe; a connector was used to link both syringes. Mixing the bioink and tumorspheres was done by pushes from one side to another. The homogenous mixture tumorspheres-bioink (˜320 μL) was transferred in 3 ml syringe preloaded with 1 mL start ink. […]

[5] = test system: bioprinted construct BB21-001; experiment: LDH release (LDH-Glo) cytotoxicity in bioprinted breast cancer construct; format: cell-based, human; conditions: 0.2 and 1 μM doxorubicin, 72 h time-point
Procedure: The 15-day old bioprinted constructs were treated with 0.2 and 1 μM Doxorubicin (Doxo). Medium samples were collected at 24, 48 and 72 h time points to assess the Lactate Dehydrogenase (LDH) release, which is a marker of cytotoxicity. LDH-Glo assay was used. Data are presented as means±SD, n=3.
Cytotoxicity of doxorubicin was also assessed by LDH release detection.

[6] = test system: bioprinted construct BB21-001 (MDA-MB-231, hMAds, CAF, BCSC); experiment: Doxorubicin treatment of single-cell bioprinted breast cancer construct, RealTime-Glo MT viability; format: cell-based, human
Procedure: The 15-day old bioprinted constructs were treated with 0.2 and 1 μM Doxorubicin (Doxo) for 72 h. Cell viability was assessed using RealTime-Glo MT before treatment (day 0) and after 72 h of treatment. To assess the doxorubicin effects after 72 h, a percentage of day 0 viability was calculated for each construct. Statistically significant differences were determined using one-way ANOVA with Tukey's post-hoc test, and indicated as follows: *** p≤0.001, **** p≤0.0001, ns—not significant.
Each cell line (MDA-MB-231, hMAds, CAF and BCSC) was harvested, counted and then the required number of cells was transferred into a 15 ml Falcone tube. The cells were spun down then resuspended into 20 μL of complete 3D Tumorsphere Medium XF (obtained from PromCell®) and loaded into a syringe preloaded with 200 μL of Laminink 411 (cells corresponded to 10% of the bioink volume). Then mixed for 550 times. The homogeneous mixture was transferred to a syringe and then set to bioprint (the extrusion volume of each bioprint being set to 3 uL (approximately 50000 cells per droplet).

[7] = test system: MDA-MB-231 triple negative breast cancer cells; experiment: Doxorubicin dose-response in 2D cell culture; conditions: for cell viability (in comparison to an untreated control sample): 2D cell culture
Procedure: The MDA-MB-231 cells were cultured in Leibovitz's L-15 Medium (ATCC®) and fetal bovine serum was added to a final concentration of 10%, and in accordance with the general procedure outlined in MDA-MB-231 (HTB-26™) Product sheet from ATCC® (https://www.atcc.org/products/htb-26).
Cells were exposed to a range of doxorubicin concentrations for 72 hours and sensitivity to this drug was evaluated by determining a concentration that kills 50% of the cells (IC50).

| IC50 ([7]; 2D culture, 72 hours) | Structure (SMILES) | effectiveness of cisplatin ([1]; 3D GBM tumourspheres) | IC50 ([1]; 3D spheroids (tumourspheres)) | IC50 ([2]; 2D GBM CSC, 72 h, read-out: Cisplatin IC50 (Mean ± SEM)) | sensitivity to cisplatin ([2]; 2D culture, 72 hours, higher doses required than for U-87 MG) | IC50 ([3]; 2D U-87 MG, 72 h, read-out: Cisplatin IC50 (Mean ± SEM)) | sensitivity to cisplatin ([3]; 2D culture, 72 hours) | IC50 ([4]; 3D Bioprinted tumour, 72 h, read-out: Cisplatin IC50) | IC50 ([4]; printed construct, read-out: IC50 value) | LDH release (cytotoxicity) [5] | effect on cell viability ([6]; 1.0 μM doxorubicin) | viability at 0.2 µM ([6]; Homo sapiens, MDA-MB-231, 0.2 μM doxorubicin, 72 h, 15-day old construct, read-out: cell viability (in comparison to an untreated control sample)) | viability at 1 µM ([6]; Homo sapiens, MDA-MB-231, 1.0 μM doxorubicin, 72 h, 15-day old construct, read-out: cell viability (in comparison to an untreated control sample)) | cell viability (in comparison to an untreated control sample) ([7]; 0.2 μM doxorubicin) | cell viability (in comparison to an untreated control sample) ([7]; 1.0 μM doxorubicin) |
| --- | --- | --- | --- | --- | --- | --- | --- | --- | --- | --- | --- | --- | --- | --- | --- |
|  | N.N.[Cl][Pt][Cl] [Cisplatin] | effective | 111 µM | 20.1 ± 3.5 µM | sensitive | 12.9 ± 2.5 µM | sensitive | > 200 µM | > 200 µM |  |  |  |  |  |  |
| 0.08 ± 0.02 µM | COc1cccc2c1C(=O)c1c(O)c3c(c(O)c1C2=O)C[C@@](O)(C(=O)CO)C[C@@H]3O[C@H]1C[C@H](N)[C@H](O)[C@H](C)O1 [doxorubicin, Doxorubicin] |  |  |  |  |  |  |  |  | increasing trend | significantly reduces cell viability | ~84% | ~35% | ~40% | <14% |
